Measured values: patent US8192962B2, “Processes for detecting toxic substances” (Daikin Industries, Ltd., priority 2001, dated 2012)

Tested on: Metabolism protein genes
Assay: DNA chip mRNA expression in yeast, metabolism protein genes (Table 7)
Type: cell-based, Saccharomyces cerevisiae S288C
Description: Yeast (Saccharomyces cerevisiae S288C (α SUC2mal mel gap2 CUP1)) were incubated at 25° C. on YPD medium (yeast extract 1%, polypepton 2%, glucose 2%). One of toxic chemical substances was added to the cells at logarithmic growth phase, and the cells were further incubated for two hours. Cells were cultured without any chemical substance in the same condition, and were used as control. Concentrations of the chemical substances were defined to inhibit the growth of the yeast but not lead to death.
After completion of the incubation, the culture was centrifuged to collect the cells. To the cells, sodium acetate buffer (50 mM sodium acetate, 10 mM EDTA, 1% SDS) was added, and the mixture was shaken at 65° C. for five minutes, followed by returning to room temperature, and obtaining the supernatant, of which the procedures were repeated two times. To the supernatant, ½ amount of a solution of phenol/chloroform was added, and the mixture was centrifuged to give a supernatant, which was added with an equal amount of chloroform, and the mixture was centrifuged to give a supernatant. To the supernatant, an equal amount of isopropanol containing 0.3 M sodium acetate was added, and the mixture was allowed to stand at room temperature for 30 minutes, after which the mixture was centrifuged to give a sediment of the whole RNAs. Seventy % ethanol was added to the sediment, and the mixture was again centrifuged to give a sediment, which was then dried and dissolved in water. mRNA was isolated from the whole RNAs as followings. In view of the fact that a poly A chain is attached to the 3′ terminus of mRNA, a polynucleotide having a poly T structure which was immobilized on the surface of latex beads was used to trap the mRNA, and then the mRNA was washed and eluted with spine column (Oligotex-dT30<Super>mRNA Purification Kit, Takara). Reverse transcription of the mRNA was conducted with a reverse transcriptase (Super Script II Reverse Transcriptase; catalogue No. 18064-014, GibcoBRL) using fluorescence-labeled nucleotides to give cDNAs that were introduced with Cy3-dUTP or Cy5-dUTP during the reverse transcription.
The labeled cDNAs were dissolved in TE buffer (10mM Tris-HCl/1 mM EDTA, pH8.0), and the solution was dropped on the DNA chip containing the whole genes of yeast (DNA Chip Research Inc. Japan) so that the cDNAs were hybridized on the DNA chip at 65° C. for over 12 hours. The fluoresces intensity of the DNA chip was read with a scanner, and the ratio relative to the fluorescence intensity resulting from the absence of chemical substance was estimated as the following, which is shown in Tables 1 to 9: […]

CCCCCCCCCCCCOS(=O)(=O)[O-].[Na+] [(18), sodium lauryl sulfate]
2.4: The level of expressed mRNA in the presence of chemical substance/The level of expressed mRNA in the absence of chemical substance (yeast gene YOL126C)
1.9: The level of expressed mRNA in the presence of chemical substance/The level of expressed mRNA in the absence of chemical substance (yeast gene YKL035W) | The level of expressed mRNA in the presence of chemical substance/The level of expressed mRNA in the absence of chemical substance (yeast gene YMR008C) | level of expressed mRNA in the presence/in the absence of chemical substance (yeast gene YPR113W)
1.4: The level of expressed mRNA in the presence of chemical substance/The level of expressed mRNA in the absence of chemical substance (yeast gene YLR299W) | level of expressed mRNA in the presence/in the absence of chemical substance (yeast gene YOL116W) | The level of expressed mRNA in the presence of chemical substance/The level of expressed mRNA in the absence of chemical substance (yeast gene YPR167C)
1.1: The level of expressed mRNA in the presence of chemical substance/The level of expressed mRNA in the absence of chemical substance (yeast gene YKL104C) | The level of expressed mRNA in the presence of chemical substance/The level of expressed mRNA in the absence of chemical substance (yeast gene YKR039W) | level of expressed mRNA in the presence/in the absence of chemical substance (yeast gene YLR056W) | level of expressed mRNA in the presence/in the absence of chemical substance (yeast gene YMR083W) | level of expressed mRNA in the presence/in the absence of chemical substance (yeast gene YMR261C) | The level of expressed mRNA in the presence of chemical substance/The level of expressed mRNA in the absence of chemical substance (yeast gene YNL045W) | The level of expressed mRNA in the presence of chemical substance/The level of expressed mRNA in the absence of chemical substance (yeast gene YNR033W) | level of expressed mRNA in the presence/in the absence of chemical substance (yeast gene YOR002W) | level of expressed mRNA in the presence/in the absence of chemical substance (yeast gene YOR108W) | The level of expressed mRNA in the presence of chemical substance/The level of expressed mRNA in the absence of chemical substance (yeast gene YOR130C) | level of expressed mRNA in the presence/in the absence of chemical substance (yeast gene YPL148C)
1.3: The level of expressed mRNA in the presence of chemical substance/The level of expressed mRNA in the absence of chemical substance (yeast gene YLL058W) | level of expressed mRNA in the presence/in the absence of chemical substance (yeast gene YLR089C) | The level of expressed mRNA in the presence of chemical substance/The level of expressed mRNA in the absence of chemical substance (yeast gene YML070W) | level of expressed mRNA in the presence/in the absence of chemical substance (yeast gene YNL025C) | The level of expressed mRNA in the presence of chemical substance/The level of expressed mRNA in the absence of chemical substance (yeast gene YNL169C) | The level of expressed mRNA in the presence of chemical substance/The level of expressed mRNA in the absence of chemical substance (yeast gene YNL331C) | level of expressed mRNA in the presence/in the absence of chemical substance (yeast gene YOL086C) | level of expressed mRNA in the presence/in the absence of chemical substance (yeast gene YOR251C) | The level of expressed mRNA in the presence of chemical substance/The level of expressed mRNA in the absence of chemical substance (yeast gene YOR347C) | The level of expressed mRNA in the presence of chemical substance/The level of expressed mRNA in the absence of chemical substance (yeast gene YPR026W)
0.9: The level of expressed mRNA in the presence of chemical substance/The level of expressed mRNA in the absence of chemical substance (yeast gene YKL215C) | level of expressed mRNA in the presence/in the absence of chemical substance (yeast gene YLR044C) | level of expressed mRNA in the presence/in the absence of chemical substance (yeast gene YLR081W) | The level of expressed mRNA in the presence of chemical substance/The level of expressed mRNA in the absence of chemical substance (yeast gene YNL104C) | The level of expressed mRNA in the presence of chemical substance/The level of expressed mRNA in the absence of chemical substance (yeast gene YNL106C) | level of expressed mRNA in the presence/in the absence of chemical substance (yeast gene YOL156W) | level of expressed mRNA in the presence/in the absence of chemical substance (yeast gene YOR085W) | level of expressed mRNA in the presence/in the absence of chemical substance (yeast gene YOR348C)
2.6: The level of expressed mRNA in the presence of chemical substance/The level of expressed mRNA in the absence of chemical substance (yeast gene YMR105C)
1.7: level of expressed mRNA in the presence/in the absence of chemical substance (yeast gene YKL060C) | The level of expressed mRNA in the presence of chemical substance/The level of expressed mRNA in the absence of chemical substance (yeast gene YKL152C) | The level of expressed mRNA in the presence of chemical substance/The level of expressed mRNA in the absence of chemical substance (yeast gene YOL153C) | level of expressed mRNA in the presence/in the absence of chemical substance (yeast gene YPL135W)
8.1: level of expressed mRNA in the presence/in the absence of chemical substance (yeast gene YLR284C)
2.5: The level of expressed mRNA in the presence of chemical substance/The level of expressed mRNA in the absence of chemical substance (yeast gene YKR009C)
1.8: level of expressed mRNA in the presence/in the absence of chemical substance (yeast gene YPL028W)
1.5: level of expressed mRNA in the presence/in the absence of chemical substance (yeast gene YKL157W) | level of expressed mRNA in the presence/in the absence of chemical substance (yeast gene YLR354C) | The level of expressed mRNA in the presence of chemical substance/The level of expressed mRNA in the absence of chemical substance (yeast gene YML100W) | The level of expressed mRNA in the presence of chemical substance/The level of expressed mRNA in the absence of chemical substance (yeast gene YNL012W) | level of expressed mRNA in the presence/in the absence of chemical substance (yeast gene YOR103C) | level of expressed mRNA in the presence/in the absence of chemical substance (yeast gene YOR178C)
1.0: level of expressed mRNA in the presence/in the absence of chemical substance (yeast gene YKL148C) | level of expressed mRNA in the presence/in the absence of chemical substance (yeast gene YKR034W) | level of expressed mRNA in the presence/in the absence of chemical substance (yeast gene YLR006C) | The level of expressed mRNA in the presence of chemical substance/The level of expressed mRNA in the absence of chemical substance (yeast gene YLR273C) | The level of expressed mRNA in the presence of chemical substance/The level of expressed mRNA in the absence of chemical substance (yeast gene YLR307W) | The level of expressed mRNA in the presence of chemical substance/The level of expressed mRNA in the absence of chemical substance (yeast gene YLR348C) | level of expressed mRNA in the presence/in the absence of chemical substance (yeast gene YMR015C) | The level of expressed mRNA in the presence of chemical substance/The level of expressed mRNA in the absence of chemical substance (yeast gene YNL322C) | The level of expressed mRNA in the presence of chemical substance/The level of expressed mRNA in the absence of chemical substance (yeast gene YNL332W) | The level of expressed mRNA in the presence of chemical substance/The level of expressed mRNA in the absence of chemical substance (yeast gene YOL165C) | level of expressed mRNA in the presence/in the absence of chemical substance (yeast gene YOR142W) | The level of expressed mRNA in the presence of chemical substance/The level of expressed mRNA in the absence of chemical substance (yeast gene YOR336W) | level of expressed mRNA in the presence/in the absence of chemical substance (yeast gene YPR183W)
3.0: The level of expressed mRNA in the presence of chemical substance/The level of expressed mRNA in the absence of chemical substance (yeast gene YMR081C)
2.3: The level of expressed mRNA in the presence of chemical substance/The level of expressed mRNA in the absence of chemical substance (yeast gene YOR099W)
1.2: level of expressed mRNA in the presence/in the absence of chemical substance (yeast gene YOR128C)
2.7: level of expressed mRNA in the presence/in the absence of chemical substance (yeast gene YOL108C) | level of expressed mRNA in the presence/in the absence of chemical substance (yeast gene YPR165W)
3.6: The level of expressed mRNA in the presence of chemical substance/The level of expressed mRNA in the absence of chemical substance (yeast gene YPL147W)
2.0: The level of expressed mRNA in the presence of chemical substance/The level of expressed mRNA in the absence of chemical substance (yeast gene YKL091C) | The level of expressed mRNA in the presence of chemical substance/The level of expressed mRNA in the absence of chemical substance (yeast gene YNR019W) | level of expressed mRNA in the presence/in the absence of chemical substance (yeast gene YPL057C)
0.6: level of expressed mRNA in the presence/in the absence of chemical substance (yeast gene YLR372W) | level of expressed mRNA in the presence/in the absence of chemical substance (yeast gene YMR323W)
2.2: The level of expressed mRNA in the presence of chemical substance/The level of expressed mRNA in the absence of chemical substance (yeast gene YMR020W) | The level of expressed mRNA in the presence of chemical substance/The level of expressed mRNA in the absence of chemical substance (yeast gene YMR271C) | The level of expressed mRNA in the presence of chemical substance/The level of expressed mRNA in the absence of chemical substance (yeast gene YNR059W)
0.7: The level of expressed mRNA in the presence of chemical substance/The level of expressed mRNA in the absence of chemical substance (yeast gene YLR180W) | level of expressed mRNA in the presence/in the absence of chemical substance (yeast gene YLR304C) | level of expressed mRNA in the presence/in the absence of chemical substance (yeast gene YML022W) | The level of expressed mRNA in the presence of chemical substance/The level of expressed mRNA in the absence of chemical substance (yeast gene YMR296C)
2.8: level of expressed mRNA in the presence/in the absence of chemical substance (yeast gene YNL192W)
0.5: The level of expressed mRNA in the presence of chemical substance/The level of expressed mRNA in the absence of chemical substance (yeast gene YLR300W) | level of expressed mRNA in the presence/in the absence of chemical substance (yeast gene YMR205C)
3.1: The level of expressed mRNA in the presence of chemical substance/The level of expressed mRNA in the absence of chemical substance (yeast gene YOR153W)
1.6: The level of expressed mRNA in the presence of chemical substance/The level of expressed mRNA in the absence of chemical substance (yeast gene YKL213C) | The level of expressed mRNA in the presence of chemical substance/The level of expressed mRNA in the absence of chemical substance (yeast gene YML054C) | level of expressed mRNA in the presence/in the absence of chemical substance (yeast gene YMR011W)
2.1: level of expressed mRNA in the presence/in the absence of chemical substance (yeast gene YOR176W)
0.8: level of expressed mRNA in the presence/in the absence of chemical substance (yeast gene YLR058C) | The level of expressed mRNA in the presence of chemical substance/The level of expressed mRNA in the absence of chemical substance (yeast gene YMR189W) | The level of expressed mRNA in the presence of chemical substance/The level of expressed mRNA in the absence of chemical substance (yeast gene YOL058W) | The level of expressed mRNA in the presence of chemical substance/The level of expressed mRNA in the absence of chemical substance (yeast gene YPL017C)
4.0: The level of expressed mRNA in the presence of chemical substance/The level of expressed mRNA in the absence of chemical substance (yeast gene YNL231C)
